Measured values as given in DBAASP.
≈ marks a conversion by molar mass, not a printed value. Where “and” joins values, the source holds several entries; their conditions need not be identical. Equal entries are not always repeated.

Legend:
Assay in all cases: ≥ marks a high value that may be exact or a test limit, other limits are often not marked, values filed in µg/mL are converted to µM
[1] = test system: Enterococcus faecalis
[2] = test system: Bacillus subtilis KCTC 3068
[3] = test system: Bacillus subtilis 168
[4] = test system: Salmonella typhimurium CVCC 542
[5] = test system: Streptococcus iniae
[6] = test system: Salmonella typhimurium KCTC 1926
[7] = test system: Shigella flexneri
[8] = test system: Staphylococcus aureus ATCC 29213
[9] = test system: Acinetobacter baumannii CCARM 12005
[10] = test system: Lactococcus garvieae
[11] = test system: Pseudomonas aeruginosa KCTC 2004
[12] = test system: Bacillus subtilis KCTC 1021
[13] = test system: Escherichia coli KCTC 2593
[14] = test system: Escherichia coli KCTC 1682
[15] = test system: Pseudomonas aeruginosa KCTC 1637
[16] = test system: Staphylococcus aureus KCTC 1621
[17] = test system: Staphylococcus aureus
[18] = test system: Vibrio alginolyticus
[19] = test system: Staphylococcus aureus CCARM 3090
[20] = test system: Staphylococcus aureus KCTC 3881
[21] = test system: Escherichia coli K-12
[22] = test system: Pseudomonas aeruginosa PAO1
[23] = test system: Pseudomonas aeruginosa CCARM 2002
[24] = test system: Aeromonas salmonicida NCTC 7812
[25] = test system: Staphylococcus aureus USA 300
[26] = test system: Pseudomonas aeruginosa
[27] = test system: Staphylococcus aureus CCARM 3089
[28] = test system: Escherichia coli KCTC 2571
[29] = test system: Staphylococcus epidermidis KCTC 1917
[30] = test system: Staphylococcus aureus CCARM 3114
[31] = test system: Staphylococcus aureus CCARM 3108
[32] = test system: Actinobacillus pleuropneumoniae
[33] = test system: Staphylococcus aureus CCARM 3126
[34] = test system: Salmonella sp.
[35] = test system: Staphylococcus aureus KCTC 1916
[36] = test system: Salmonella typhimurium CCARM 8003
[37] = test system: Bacillus subtilis KCTC 1022
[38] = test system: Aeromonas salmonicida
[39] = test system: Escherichia coli CCARM 1229
[40] = test system: Pseudomonas aeruginosa KCTC 2513
[41] = test system: Escherichia coli mcr
[42] = test system: Enterococcus faecalis ATCC 29212
[43] = test system: Glaesserella parasuis
[44] = test system: Escherichia coli
[45] = test system: Fusarium oxysporum
[46] = test system: Escherichia coli SBS 363
[47] = test system: Micrococcus luteus CIP 5345
[48] = test system: Botrytis cinerea

## CC[C@H](C)[C@H](NC(=O)CNC(=O)[C@H](CCCNC(=N)N)NC(=O)[C@H](Cc1ccccc1)NC(=O)[C@@H](NC(=O)[C@H](Cc1cnc[nH]1)NC(=O)[C@H](Cc1cnc[nH]1)NC(=O)[C@H](Cc1ccccc1)NC(=O)[C@@H](N)Cc1ccccc1)[C@@H](C)CC)C(=O)N[C@H](C(=O)N[C@@H](Cc1cnc[nH]1)C(=O)N[C@H](C(=O)NCC(=O)N[C@@H](CCCCN)C(=O)N[C@H](C(=O)N[C@H](C(=O)N[C@@H](Cc1cnc[nH]1)C(=O)N[C@@H](CCCNC(=N)N)C(=O)N[C@@H](CC(C)C)C(=O)N[C@H](C(=O)N[C@H](C(=O)NCC(=O)O)[C@@H](C)O)C(C)C)[C@@H](C)CC)[C@@H](C)O)C(C)C)C(C)C [FFHHIFRGIVHVGKTIHRLVTG]
[1]
  MIC: 1.21 µM (≈ 3.1 µg/mL)
[2]
  MIC: 2 µM (≈ 5.14 µg/mL)
[3]
  MIC: 12.5 µM (≈ 32.2 µg/mL)
[4]
  MIC: 6.22 µM (≈ 16 µg/mL)
[5]
  MIC: 1.21 µM (≈ 3.1 µg/mL)
[6]
  MIC: 2 µM (≈ 5.14 µg/mL)
[7]
  MIC: 1.21 µM (≈ 3.1 µg/mL)
[8]
  MIC: 2.43 µM (≈ 6.25 µg/mL)
[9]
  MIC: 2 µM (≈ 5.14 µg/mL)
[10]
  MIC: 1.21 µM (≈ 3.1 µg/mL)
[11]
  MIC: 2 µM (≈ 5.14 µg/mL)
[12]
  MIC: 2 µM (≈ 5.14 µg/mL)
[13]
  MIC: 1 µM (≈ 2.57 µg/mL)
[14]
  MIC: 2 µM (≈ 5.14 µg/mL)
[15]
  MIC: 4 µM (≈ 10.3 µg/mL)
[16]
  MIC: 4 µM (≈ 10.3 µg/mL)
[17]
  MIC: 1.21 µM (≈ 3.1 µg/mL)
[18]
  MIC: 1.21 µM (≈ 3.1 µg/mL)
[19]
  MIC: 8 µM (≈ 20.6 µg/mL)
[20]
  MIC: 2 µM (≈ 5.14 µg/mL)
[21]
  MIC: 12.5 µM (≈ 32.2 µg/mL)
[22]
  MIC: 50 µM (≈ 129 µg/mL)
[23]
  MIC: 2 µM (≈ 5.14 µg/mL)
[24]
  MIC: ≥ 77.8 µM
[25]
  MIC: 3.1 µM (≈ 7.97 µg/mL)
[26]
  MIC: 4.86 µM and 12.4 µM
[27]
  MIC: 8 µM (≈ 20.6 µg/mL)
[28]
  MIC: 1 µM (≈ 2.57 µg/mL)
[29]
  MIC: 2 µM (≈ 5.14 µg/mL)
[30]
  MIC: 4 µM (≈ 10.3 µg/mL)
[31]
  MIC: 4 µM (≈ 10.3 µg/mL)
[32]
  MIC: 6.22 µM (≈ 16 µg/mL)
[33]
  MIC: 4 µM (≈ 10.3 µg/mL)
[34]
  MIC: 6.22 µM (≈ 16 µg/mL)
[35]
  MIC: 1 µM (≈ 2.57 µg/mL)
[36]
  MIC: 4 µM (≈ 10.3 µg/mL)
[37]
  MIC: 1 µM (≈ 2.57 µg/mL)
[38]
  MIC: 1.21 µM (≈ 3.1 µg/mL)
[39]
  MIC: 4 µM (≈ 10.3 µg/mL)
[40]
  MIC: 2 µM (≈ 5.14 µg/mL)
[41]
  MIC: 2.2 µM (≈ 5.66 µg/mL)
[42]
  MIC: 1.22 µM (≈ 3.14 µg/mL)
[43]
  MIC: 3.11 µM (≈ 8 µg/mL)
[44]
  MIC: 1.21 µM (≈ 3.1 µg/mL)

## NCCCC[C@H](NC(=O)[C@@H]1CCCN1C(=O)[C@@H](N)CCCN=C(N)N)C(=O)N1CCC[C@H]1C(=O)N[C@@H](CCCN=C(N)N)C(=O)N1CCC[C@H]1C(=O)N[C@@H](CCCN=C(N)N)C(=O)N1CCC[C@H]1C(=O)N[C@@H](CCCN=C(N)N)C(=O)N1CCC[C@H]1C(=O)N[C@@H](CCC(=O)O)C(N)=O [RPKPRPRPRPE]
[45]
  MIC: ≥ 100 µM
[46]
  MIC: ≥ 200 µM
[47]
  MIC: ≥ 200 µM
[48]
  MIC: ≥ 100 µM
